Measured values from a melting point compilation (Tetko et al.; mined from patent text by program, amines drawn as free bases though some values may be those of a salt).

| SMILES | melting point |
| --- | --- |
| COc1cc2c(Nc3ccc(Cl)cc3F)ncnc2cc1OCc1ccnc(C)c1 | 221 to 224 °C |
| CC(=O)OCC1(COC(C)=O)CC1(Br)Cn1cc(C)c(=O)[nH]c1=O (stereo not given) | 197 to 198 °C |
| CN(C(=O)c1cccc(C(=C2CC3CCC(C2)N3C)c2ccccc2)c1)c1cccc(F)c1 | 122 to 125 °C |
| O=C(O)Cc1cc([N+](=O)[O-])ccc1Sc1ccccc1 | 138 to 140 °C |
| CN(C)c1ncnc2c1c(-c1ccc([N+](=O)[O-])o1)nn2C | 161 °C |
| COc1ccc2nc(Cl)cc(CCNC(C)=O)c2c1 | 162 to 164 °C |
| Cc1ccc(OC(=O)CCCC(=O)OOC(=O)CCCC(=O)Oc2ccc(C)cc2)cc1 | 24 to 30 °C |
| CCCCCCCCCCCCCCCCCCOCC(COC(c1ccccc1)(c1ccccc1)c1ccccc1)OS(=O)(=O)c1ccc(C)cc1 (stereo not given) | 52 to 53 °C |
| CC(=NOCCO)c1ccc(-c2ccccc2)cn1 | 66 to 68 °C |
| Cc1nc2ncnn2c(N[C@@H](C)c2ccc(F)cc2)c1Cl | 103 to 104 °C |
| COc1ccc2c(c1)C(CCNC(=O)C(F)(F)F)=C(Cc1ccccc1)C2 | 126 to 128 °C |
| O=C(O)Cc1cc2c(s1)-c1ccccc1SC2 | 106 to 110 °C |
| O=[N+]([O-])c1ccc2[nH]cc(C3=CCNCC3)c2c1 | 250 °C |
| COCOC1CCN(c2ccc(NC(=O)c3cnn(-c4ccc(Cl)cc4)c3C)cc2C#N)CC1 | 186 to 188 °C |
| COc1ccc([N+](=O)[O-])c(Nc2ccccc2O)n1 | 206 to 207 °C |
| C=CC(=O)NCc1cc([N+](=O)[O-])ccc1C | 155 to 158 °C |
| CC(=O)Nc1cnc(-c2cc(Cl)cc(Cl)c2Cl)c(N)n1 | 200 to 203 °C |
| COc1c(-c2cc3c(s2)CCC/C3=N\OCc2ccccn2)ccc2c(=O)c(C(=O)O)cn(C3CC3)c12 | 178 to 179 °C |
| COC(=O)CCCCCNC(=O)/C=C/C=C/c1ccccc1 | 125 to 127 °C |
| c1ccc(-n2c3ccccc3c3cc(-n4ccnc4-c4nccn4-c4ccc5c(c4)c4ccccc4n5-c4ccccn4)ccc32)nc1 | 215 to 227 °C |
| COc1cc2oc(=O)c(CCOS(C)(=O)=O)c(C)c2cc1OC | 188 to 191 °C |
| CC(C)OC(=O)C=CC(=O)c1ccc(Oc2ccccc2)cc1 | 71.5 to 72 °C |

| SMILES | melting point |
| --- | --- |
| CCc1nc(C(=O)c2cc(F)c(Cl)cc2Cl)c(C=O)n1C(CC)CC | 70 to 71 °C |
| CCOC(=O)c1c(C(C)(C)O)nc(CO)n1Cc1ccc(-c2ccccc2-c2nnnn2C(c2ccccc2)(c2ccccc2)c2ccccc2)cc1 | 151 to 152 °C |
| CC=CC(=O)Nc1n[nH]c2ccc(C)cc12 | 218 °C |
| COC(=O)[C@@H]1COC(=S)N1C(=O)c1ccccc1 | 87.2 to 88 °C |
| CC(=O)n1c(C)c(-c2ccccc2)c(=O)n1-c1ncccn1 | 138 to 140 °C |
| Nc1ccc(C(=O)c2ccccc2)cc1F | 83 to 85 °C |
| N#Cc1cccc(NC2CCN(Cc3cc(F)cc(C(F)(F)F)c3)CC2)n1 | 115 °C |
| CC1=C(C(=O)O)C(c2cccc([N+](=O)[O-])c2)NC(=N[N+](=O)[O-])N1 (stereo not given) | 236 to 238 °C |
| CCCCn1nc(C(N)=O)cc1C | 114 °C |
| CCC1(CC(=O)O)OCC(=O)c2c1[nH]c1ccccc21 (stereo not given) | 235 to 238 °C |
| COCCc1nc2c(N)nc3ccccc3c2n1CCOCCN(C)S(=O)(=O)C(C)C | 130 °C |
| COCCn1cc2c(C3C(=O)Nc4ccc(Br)cc43)nc(Cl)nc2n1 (stereo not given) | > 300 °C |
| CC1(C)C(=O)NCCN1C(=O)C(Cc1ccccc1)N1C(=O)c2ccccc2C1=O (stereo not given) | 221 to 223 °C |
| COc1ccc(Cl)c(CBr)c1 | 51 to 52 °C |
| CCOC(=O)c1c(C)nn(-c2ccc(Br)cc2)c1C | 71 to 73 °C |
| CCc1nc(C)n(COCc2ccccc2)c1Sc1ccccc1 | 156 to 159 °C |
| O=C1C(=CCc2ccccc2)SC(=S)N1N=c1sc2ccccc2s1 | 233 to 234 °C |
| BrCc1ccc(CCc2ccccc2)cc1 | 52 to 53 °C |
| CC(C)(C)c1ccc(C(NC(=O)c2c(F)cccc2F)N2CCOCC2)cc1 (stereo not given) | 199 to 200 °C |
| Clc1cc(NCCc2ccccc2)c2ccccc2n1 | 132 to 133 °C |
| CNS(=O)(=O)c1cccc(OC)c1C#N | 121 to 128 °C |

More lines, now with the values ahead:

| melting point | SMILES |
| --- | --- |
| 132 to 137 °C | CC1(C)SC(CCCc2ccc(C(=O)O)cc2)N(CCC2(O)CCCCC2)C1=O (stereo not given) |
| 172 to 176 °C | O=c1ccc2ccc(CBr)cc2o1 |
| 164 to 165 °C | CCOC(=O)C(C)=CNc1ccc2ccccc2n1 |
| 163 to 164 °C | COC(=O)n1c(=O)oc2c(Cl)c(Cl)c(Cl)cc21 |
| 145 to 146 °C | Cc1c(C)c2c(c(C)c1NC(=O)NCCCCO)C(c1ccc(C(C)C)cc1)CO2 (stereo not given) |
| 93 to 95 °C | Cn1ncc2c1CCC(=CO)C2=O |
| 122 °C | O=S(=O)(Nc1cccc(C=C2c3ccccc3CCc3ccccc32)c1)c1ccccc1 |
| 40 to 41 °C | CCCCCCCCCCCCCCOc1ccc(CBr)cc1 |
| 180 °C | O=C1Nc2ccccc2SCC1c1ccc(Cl)cc1 (stereo not given) |
| 181 to 182 °C | CCC(=O)Nc1cccc(O)c1 |
| 132 to 133 °C | C=CCCCSC1NN=C(c2ccncc2)N1c1ccccc1 (stereo not given) |
| 142 to 143 °C | O=C(C(=Cc1ccc(F)cc1)S(=O)(=O)c1ccccc1)c1ccccc1 |
| 81 °C | CC1(C)CC(O)CC(C)(C)N1N=Nc1ccccc1Br |
| 141 to 142 °C | O=C(C(=O)c1ccc(C(F)(F)F)cc1)c1ccc(C(F)(F)F)cc1 |
| 120 to 123 °C | CC(OCc1ccc(-c2ccccc2)cc1)C(=O)NO (stereo not given) |
| 190 to 194 °C | COC(=O)CCc1ccc(-n2c(-c3ccccc3)nn(-c3ccc(C#N)cc3)c2=O)cc1 |
| 144 to 146 °C | CCCc1c(OCCCCCC(=O)c2ccc3cc(OC)c(OC)cc3c2)ccc(C(=O)O)c1O |
| 138 to 140 °C | COc1ccc2cccc(C(CO)CNC(=O)C(F)(F)F)c2c1 (stereo not given) |
| 148 to 155 °C | Cc1ccc(C(=O)NC(CF)NC(=S)Nc2cccc([N+](=O)[O-])c2)cc1 (stereo not given) |

| melting point | SMILES |
| --- | --- |
| 158 to 159 °C | O=C(NCCC12CC3CC(CC(C3)C1)C2)c1cccc(Cl)c1Cl |
| 145 to 154 °C | COc1c(Cl)ccc(Cl)c1C(=O)NOCC(=O)O |
| 95.8 to 97 °C | O=C(OCc1ccccc1)c1ccc(OCc2cccc(COc3ccc(C(=O)OCc4ccccc4)cc3Cl)c2)c(Cl)c1 |
| 130 to 133 °C | CCCCCCC(C)(Sc1cc(C(C)(C)C)c(O)c(C(C)(C)C)c1)Sc1cc(C(C)(C)C)c(O)c(C(C)(C)C)c1 |
| 91 to 93 °C | CCOC(=O)COc1c(C(C)C)cc(C(O)(C(F)(F)F)C(F)(F)F)cc1C(C)C |
| 263 to 264 °C | CS(=O)(=O)c1ccc(-n2cc(CC(=O)O)nc2-c2ccc(Cl)cc2)cc1 |
| 236 to 239 °C | CS(=O)(=O)c1ccc(-c2cccn3nc(N)nc23)cc1 |
| 114 to 115 °C | COCCCS(=O)(=O)NC(=O)CCc1ccc(OC(C)C)cc1Oc1ncc(C(F)(F)F)cc1Cl |
| 90 to 93 °C | C=C(c1ccc(N(C)C)cc1)c1ccc(N2CCCC2)cc1C |
| 107 to 108 °C | COc1ccc2c(c1)Oc1c(cccc1OCc1ccccc1)C2 |
| 206 to 207 °C | CNC(=O)c1cccc(C2=NC(C)(C)Cc3cc(OC)c4c(c32)CC(C)(C)O4)c1 |
| 189 °C | O=C(O)Cc1ccc2onc(-c3ccc(Cl)cc3)c2c1 |
| 155 to 159 °C | CCn1c(=O)c2c(N3CCN(C)CC3)cc(Cl)cc2n(Cc2ccccc2)c1=O |
| 61 to 67 °C | Clc1ccc2c(c1)C1(CO1)c1ccccc1C21CO1 (stereo not given) |
| 204 °C | NC(=O)c1ccccc1C(=O)N(C[C@H]1CN(c2ccc(N3CCOCC3=O)cc2)C(=O)O1)C[C@H]1CN(c2ccc(N3CCOCC3=O)cc2)C(=O)O1 |
| 145 to 146 °C | COc1cc(OC)cc(-c2cc(=O)c3ccc(OCC(O)CNC(C)(C)C)cc3o2)c1 (stereo not given) |
| 126 to 127 °C | COc1ccc(C(C)C)c(NC(=O)CN2CCN(CCCSc3nc4c(C)c(Cl)cc(C(C)C)c4o3)CC2)c1C(C)C |
| 237 to 242 °C | CCN1CCc2ccc(Nc3ncc(Cl)c(N[C@H]4CCC[C@H]4C(N)=O)n3)cc2CC1 (relative stereo) |
| 77 to 78 °C | CCCCC(C)C(O)C=Cc1ccc(OCc2ccccc2)c(OCc2ccccc2)c1 (stereo not given) |

| melting point | SMILES |
| --- | --- |
| 284 to 289 °C | CC(C)=Cn1cnc2c(N)nc3ccccc3c21 |
| 130 to 132 °C | Nc1cccc(-c2ccc(CCN3CCC4(CCCC4)CC3)cc2)n1 |
| 235 to 237 °C | O=C1CCCc2[nH]c3ccc(OCc4ccccc4)cc3c21 |
| 303 to 305 °C | COc1cc(OC)c2c(=O)[nH]c(-c3ccc(O)cc3)nc2c1 |
| 149 to 151 °C | O=C(NCCO)c1ccc(/C=C/c2ccccc2OCc2ccccc2)cc1 |
| 190 °C | COCC(Cl)C(=O)Nc1c(C(=O)CC(=O)Nc2nccs2)cccc1C(F)(F)F (stereo not given) |
| 117 to 123 °C | Fc1cccc(OC2CN(C3CCC(c4c[nH]c5cc(F)ccc45)CC3)C2)c1 (stereo not given) |
| > 320 °C | CCn1cc(C(=O)O)c(=O)c2c(F)c(F)c(N3CCCC3)c(F)c21 |
| 196 to 197 °C | CCCn1c(COC)nc2c(N)nc3ccc(OCCCN4CCN(c5ccccn5)CC4)cc3c21 |
| 248 to 250 °C | O=C(O)CSc1ccc(-n2cc(C3c4ccccc4C=Cc4ccccc43)c(=S)[nH]c2=O)nn1 |
| 120 to 122 °C | CCCCCCCCOC(=O)NCC1CCC(CNC(=O)OCCCCCCCC)CC1 (stereo not given) |
| 162 °C | CC(=O)c1cccc2ccc(CS(=O)(=O)N3CCOCC3)cc12 |
| 155 to 158 °C | NC(=O)c1cc(OCCNCC(O)COc2ccc(-c3nc(C(F)(F)F)c[nH]3)cc2)ccc1O (stereo not given) |
| 154 °C | O=c1ncc(C(F)(F)F)c[nH]1 |
| 212 to 215 °C | CCC(=O)Nc1nc2ccc(Cl)cc2n2c(CC)nnc12 |
| 163 to 164 °C | Cc1cccc(C)c1NC=O |
| 73 to 74 °C | COc1ccc2c(n1)c(CCNC(C)=O)c1n2CCCc2ccccc2-1 |
| 133 to 135 °C | C=Cc1cc(CNC(=O)OC(C)(C)C)cc(Cl)c1NS(C)(=O)=O |
| 159 to 161 °C | CCCCCc1c(-c2ccc3c(Br)c(OCC(=O)O)ccc3c2)oc2ccccc12 |
